By IC50 is commonly meant the midpoint of a concentration-inhibition curve.

The results in this text go back to ChEMBL document CHEMBL5385941, “Synthesis and biological evaluation of hydantoin derivatives as potent antiplasmodial agents” (Bioorg Med Chem Lett, 2024).

Series [1] in a line: Cytotoxicity against human MRC5 cells assessed as cell growth inhibition measured after 24 hrs by MTT assay. It is filed as toxicity, cell-based. A general note: Formazan colour is commonly taken as a measure of viable cells.
A short description of series [2]: Cytotoxicity against human MRC5 cells assessed as cell viability at 3.125 to 100 uM measured after 24 hrs by MTT assay relative to control. The class given is toxicity, cell-based. The following applies: dose 3.125-100 µM, read-out: Activity.
For a further series, the system named is Plasmodium falciparum. Kind of series: Antiplasmodial activity against Plasmodium falciparum 3D7 trophozoites assessed as parasite growth inhibition. The class given is functional, organism-based.

Consider `C[C@H]1NC(=O)NC1=O`, for which, in series [1], the IC50 at 24 h is over 100 µM. The viability at 24 h, up to 100 µM in series [2] was over 80%. For the same compound, the IC50 with Plasmodium falciparum was determined as 916 µM.

Regarding `O=C1NC(=O)[C@@H](c2ccccc2)N1`, the IC50 at 24 h in series [1] was over 100 µM. Moreover, the viability at 24 h, up to 100 µM in series [2] was over 80%. For the same compound, the IC50 in the series with Plasmodium falciparum was over 1000 µM.

In the case of `CSCC[C@H]1NC(=O)NC1=O`, the IC50 at 24 h in series [1] was over 100 µM. In addition, the viability at 24 h, up to 100 µM in series [2] was over 80%. Besides, the IC50 in the series with Plasmodium falciparum is over 1000 µM.

Regarding `Cc1ccc(S(=O)(=O)N2C(=O)CNC2=O)cc1`, the IC50 at 24 h in series [1] is over 100 µM. Also, the viability at 24 h, up to 100 µM in series [2] was over 80%. Besides, the half-maximal inhibitory concentration (IC50) in the series with Plasmodium falciparum was found to be 0.00397 µM.

As for `CC(C)C(=O)N1C(=O)N[C@H](c2ccccc2)C1=O`, in series [1], the IC50 at 24 h was over 100 µM. The viability at 24 h, up to 100 µM in series [2] was over 80%. For the same compound, the half-maximal inhibitory concentration (IC50) in the series with Plasmodium falciparum was 27.5 µM.

Regarding `O=C1CNC(=O)N1C(=O)c1cc([N+](=O)[O-])cc([N+](=O)[O-])c1`, the IC50 at 24 h in series [1] was over 100 µM. Further, the viability at 24 h, up to 100 µM in series [2] is over 80%. The concentration for half-maximal inhibition (IC50) in the series on Plasmodium falciparum amounted to 625 µM.

For `CC(C)C(=O)N1C(=O)CNC1=O`, in series [1], the IC50 at 24 h is over 100 µM. In addition, the viability at 24 h, up to 100 µM in series [2] was over 80%. Further, in the series on Plasmodium falciparum, the IC50 was over 1000 µM.

Consider `O=C1CNC(=O)N1C(=O)Cc1ccccc1`, for which, in series [1], the IC50 at 24 h was over 100 µM. Moreover, the viability at 24 h, up to 100 µM in series [2] is over 80%. For the same compound, in the series on Plasmodium falciparum, the IC50 was 748 µM.

For `CC(=O)N1C(=O)CNC1=O`, the IC50 at 24 h in series [1] is over 100 µM. Further, in series [2], the viability at 24 h, up to 100 µM was over 80%. In addition, the IC50 with Plasmodium falciparum amounted to 147 µM.

Turning to `O=C1CNC(=O)N1` [HYDANTOIN], in series [1], the IC50 at 24 h is over 100 µM. In series [2], the viability at 24 h, up to 100 µM was over 80%. Further, the IC50 in the series on Plasmodium falciparum was found to be 623 µM.
